One test concerns mouse spleen cells. The test is described as follows: Proliferation of IL-4/anti-CD40 Ab-stimulated mouse spleen cells. The following applies: read-out: anti-proliferative potency. Type of test: cell-based. As to the method: BALB/c spleen cells were cultured for 20 hours in the presence of stimulus+/−AVP 893 (100 ng/ml) and harvested and prepared as described in FIG. 17. Stimulus conditions include: LPS (10 μg/ml), IL-4 (10 ng/ml) plus anti-CD40 Ab (100 ng/ml), PMA (10 ng/ml) plus ionomycin (100 nM), or Con A (5 μg/ml). […] This experiment was carried out as described for FIG. 21, except that different AVP compounds with high (AVP 893, 5 nM), medium (AVP 26297, 50 nM), and low (AVP 25630, 500 nM) anti-proliferative potency were tested and compared. AVP 893 was tested at 1, 10, and 100 ng/ml; AVP 26297 was tested at 1, 10, 100, and 1000 ng/ml; AVP 25630 was tested at 10, 100, and 1000 ng/ml.

Another test has as its system nicastrin. The experiment in a line: Nicastrin expression/maturation by Western blotting. The test is classed as cell-based. As to the method: The culture medium was removed by vacuuming (for attached cells) or by low speed centrifugation (for suspension cells) for 5-7 minutes at room temperature. The cells were wasedh twith PBS, spun at 1200 rpm and the cell pellets were kept on ice. 300 μl/2.0×10^7 cells of ice cold lysis buffer was added with freshly added protease inhibitors. Cell pellets were gently resuspended and incubated on ice for at least 30 min, vortexed a few times during incubation. Cell lysate was spun at 14,000 rpm for 2-5 min at 4° C. The supernatant was transferred to a new microfuge tube and the pellet was discarded. An aliquot of sample was mixed with an equal volume of 2× sample buffer (InVitrogen), and stored at −80° C. Protein concentration was determined by using “BCA protein assay reagent kit” from Pierce.
Protein samples (in sample buffer) were boiled for 1-3 minutes and put on ice. Same amount of protein were loaded on the NuPage gel (InVitrogen). […]
To further examine the putative protein trafficking effects of AVP 893, other proteins in this pathway were tested in vitro in B16 and other cell lines. […] Other cell lines were tested for their expression of GS28 and nicastrin and found to respond similarly to drug, although quantitative differences were evident. […]
(In general: A western blot detects proteins with antibodies after separation by electrophoresis.)

The subject of the next test is Mannosidase II. The test is described as follows: Mannosidase II immunocytochemistry. The test is classed as cell-based. As to the method:
GS15, GS28, GPP130, and Mannosidase II, sparing the golgi structural protein GM-130 and having little effect on the Rab GTPase Rab6. Furthermore, these affects were most pronounced following overnight (16-20 hr) incubations with AVP 893, although some affects at early time points were seen. These conclusions were drawn from the western blot analysis (FIG. 29), as well as from the immunocytochemical studies (FIGS. 30-31).
Additional evidence that AVP 893 has unique activity against resident golgi proteins (e.g. Mannosidase II), was found using both shorter durations of drug exposure and immunocytochemistry instead of western blot analysis (FIG. 43).

For the next test, the system named is B16-F10 cells. The test is described as follows: PowerBlot screen of expression of over 950 proteins. Type of test: cell-based, mouse. The following applies: 100 ng/ml, 16 hr. As for the experimental part:
A second series of experiments tested the activity of AVP 893 on the expression of over 950 proteins by Western blotting in vitro (in triplicate); methods detailed below. B16 tumor cells were chosen for this screen and a 16 hour duration of AVP 893 treatment was selected to optimize the number of proteins that might be modified by drug. […] B16-F10 cells were cultured for 16 hr in the presence or absence of 100 ng/ml AVP 893. Samples were harvested and lysates prepared according to instructions supplied by Becton-Dickinson. Samples were placed on dry ice and submitted to the same for expression analysis of 950 proteins. […] Although both proteins have entirely different functions in the cell, and have not been linked (apparently) in the scientific literature, there is a rational explanation for the changes noted in each protein, as described below.

Test [1] relates to PC12 pheochromocytoma cells. The test is described as follows: Norepinephrine release and dopamine re-uptake in PC12 cells. Type of test: cell-based. The following applies: not shown. An excerpt: The proposed mechanism of the AVP compounds on intracellular protein transit also allows certain predictions as to other effects and non-effects that these compounds might share. For example, inhibition of vesicle fusion or budding between the ER and golgi should not affect exocytosis as would be expected of a post-golgi active compound such as Monensin. AVP 893 has minimal effects on the expression of proteins involved in exocytosis, particularly VAMP, SNAP23 (non-neuronal cells), and SNAP25 (neuronal cells).

For the molecule `O=C(Nc1ccc(-c2nc3cc(NC(=O)C4CCCCC4)ccc3[nH]2)cc1)C1CCCCC1` [AVP 893], the IC50 in the test with mouse spleen cells was found to be 5 nM. In addition, the “IC50 for mature nicastrin expression” value with nicastrin (3T3 cells, overnight) is 10 and 100 ng/ml. The “levels of mature nicastrin” value in the test on nicastrin (3T3 fibroblast cell line) was “virtually eliminated”. In addition, in the test on Mannosidase II (1 hr of treatment, immunocytochemistry), the “Mannosidase II staining pattern” value is given as “no apparent effect”. The “Mannosidase II in golgi” value in the test with Mannosidase II (after 4 hrs of application) is “little to no discernible amount of the enzyme remaining after 4 hrs”. For the same molecule, the “number of proteins consistently and significantly modified of over 950” value in the test with B16-F10 cells came out at 6. For the same molecule, the “release of norepinephrine, re-uptake of dopamine” value in test [1] was “does not affect the release of norepinephrine or the re-uptake of dopamine”.

(Values after patent US20050256179A1, “Selective pharmacologic inhibition of protein trafficking and related methods of treating human diseases” (priority 2003, published 2005).)
